# Assay results from EP0810221A1 (MITSUBISHI CHEMICAL CORPORATION, priority 1995, dated 1996).
# Columns and labels:
# [1] = test system: microtubule-binding proteins; conditions: after cerebral ischemia; cited from earlier work
# IgE = conditions: cited from earlier work
# IgG = conditions: cited from earlier work
# [2] = rats, osteoclasia accentuated by parathormone; cited from earlier work
# [3] = Release of an active compound in blood: incubation in rat serum, HPLC; type: in vitro ADME; conditions: final concentration 100 µ M, 37°C, 5 minutes
# Protocol: (2S,3S)-2-acetoxy-3-((S)-4-methyl-2-phenylsulfonylaminovalerylamino)tetrahydrofuran obtained in Example 88 was dissolved in acetonitrile and the solution was added to rat serum so that its final concentration was adjusted to 100 µ M. The mixture was incubated at 37°C for 5 minutes. The mixture was then added with acetonitrile and centrifuged, and the resulting solution portion was applied to HPLC for analysis. For comparison, solutions obtained by dissolving (3S)-3-((S)-4-methyl-2-phenylsulfonylaminovalerylamino)-2-tetrahydrofuranol obtained in Example 1 and (2S,3S)-2-acetoxy-3-((S)-4-methyl-2-phenylsulfonylaminovalerylamino)tetrahydrofuran obtained in Example 88 in acetonitrile respectively were examined by HPLC.
# The HPLC conditions were as follows: Column: Nucleosil 1005 C18, 4.6×250 mm (Nagel) Column temperature: 50°C Mobile phase: CH3CN:H2O:PIC A Low UV (Waters) = 22:78:1 Flow rate: 1 ml/min Detection wavelength: UV 222 nm
# [4] = Release of an active compound in blood: incubation in human serum, HPLC; type: in vitro ADME; conditions: same procedure
# [5] = Release of an active compound in blood: incubation in dog serum, HPLC; type: in vitro ADME; conditions: same procedure
# [6] = Acute toxicity test, oral; conditions: both sexes, rat, in vivo, orally administered, suspended in 0.5% aqueous CMC-Na, SD male and female rats, observed for seven days
# Excerpt: Compounds of the present invention was suspended in 0.5% aqueous solution of CMC-Na and the suspensions were orally administered to SD male and female rats.
# [7] = test system: muscular dystrophy hamsters; conditions: cited from earlier work
# blood platelets = conditions: cited from earlier work
# [8] = test system: experimental model of cataract; conditions: cited from earlier work
# [9] = test system: animal model of myocardial infarct; conditions: in vivo; cited from earlier work
# [10] = biological target: T1, cathepsin B (Sigma, C-6286) (Bos taurus, UniProt P07688); assay: Inhibitory activity against cathepsin B; type: biochemical; conditions: Inhibitory activity against cathepsin B (Table-5)
# T1 construct: purchased Sigma C-6286
# Protocol: Inhibitory activity against cathepsin B (Sigma, C-6286) was determined according to a method described in a literature (Biochemical Journal, Vol. 201, p. 189, 1982).
# m-Calpain = biological target: T2, m-Calpain (Rattus norvegicus, UniProt Q07009); assay: Inhibitory activity against calpain (m-Calpain purified from brains of rats); type: biochemical
# T2 construct: m-Calpain was purified from brains of rats; from tissue; host or cells: rat brain
# T2 sequence (Q07009 20-700 limits assumed): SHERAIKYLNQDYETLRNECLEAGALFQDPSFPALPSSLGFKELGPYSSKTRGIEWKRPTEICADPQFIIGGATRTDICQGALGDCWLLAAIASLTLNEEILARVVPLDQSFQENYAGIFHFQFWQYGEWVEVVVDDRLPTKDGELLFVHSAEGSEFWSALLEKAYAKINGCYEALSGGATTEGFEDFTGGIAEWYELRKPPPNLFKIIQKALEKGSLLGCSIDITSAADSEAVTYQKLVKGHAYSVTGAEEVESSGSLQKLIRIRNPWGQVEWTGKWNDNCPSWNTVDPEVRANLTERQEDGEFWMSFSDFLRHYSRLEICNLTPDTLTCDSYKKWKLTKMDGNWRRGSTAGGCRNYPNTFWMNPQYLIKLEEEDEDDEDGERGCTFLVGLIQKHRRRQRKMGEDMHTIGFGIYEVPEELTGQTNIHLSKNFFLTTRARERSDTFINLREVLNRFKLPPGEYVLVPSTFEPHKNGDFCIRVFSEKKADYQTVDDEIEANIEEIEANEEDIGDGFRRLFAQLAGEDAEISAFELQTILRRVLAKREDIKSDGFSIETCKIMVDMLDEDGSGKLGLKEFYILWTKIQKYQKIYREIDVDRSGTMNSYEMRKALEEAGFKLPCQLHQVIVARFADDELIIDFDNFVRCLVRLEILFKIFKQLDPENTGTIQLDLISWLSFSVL
# T2 sequence (Q64537 1-270 partner): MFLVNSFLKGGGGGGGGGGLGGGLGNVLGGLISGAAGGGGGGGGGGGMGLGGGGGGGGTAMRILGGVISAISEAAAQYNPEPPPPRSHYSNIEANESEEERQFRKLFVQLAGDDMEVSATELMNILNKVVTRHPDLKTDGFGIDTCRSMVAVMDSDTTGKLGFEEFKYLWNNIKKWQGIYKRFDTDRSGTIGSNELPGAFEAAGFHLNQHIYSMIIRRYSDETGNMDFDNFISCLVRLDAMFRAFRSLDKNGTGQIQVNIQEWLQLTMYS
# Protocol: m-Calpain was purified from brains of rats according to a method described in a literature (Journal of Biological Chemistry, Vol. 259, p. 3210, 1984), and the inhibitory activity was determined in a manner according to a published method (Journal of Biological Chemistry, Vol. 259, p. 12489, 1984).
# axon = conditions: head injury model using a rat; cited from earlier work
# [11] = Inhibitory activity against calpain (Table-6)
# [12] = Inhibitory activity against calpain (continuation of Table-6)
compound,measurement,setting,value
"CC(C)CCNC(=O)[C@H](CC(C)C)NC(=O)[C@H]1O[C@@H]1C(=O)O [Example E-64-c, E-64-c]",degradation of microtubule-binding proteins,[1],suppressed
NC(N)=NCCCCNC(=O)[C@H](Cc1ccccc1)NC(=O)[C@H]1O[C@@H]1C(=O)O [Estatin A],production of IgE,IgE,specifically suppresses
same,production of IgG,IgG,does not affect
same,hydroxyproline concentration,[2],lowered
same,serum calcium concentration,[2],lowered
"CC(=O)O[C@@H]1OCC[C@@H]1NC(=O)[C@H](CC(C)C)NS(=O)(=O)c1ccccc1 [Example 88, (2S,3S)-2-acetoxy-3-((S)-4-methyl-2-phenylsulfonylaminovalerylamino)tetrahydrofuran]",hydrolyzed and converted into the active form,[3],97%
same,formation of active form,[4],formations of active form were also observed
same,formation of active form,[5],formations of active form were also observed
same,LD50 at 7 days,[6],< 2000 mg/kg
"CCOC(=O)[C@H]1O[C@@H]1C(=O)N[C@@H](CC(C)C)C(=O)NCCC(C)C [Example E-64-d, E-64-d]",life prolongation effect,[7],life prolongation effect
same,platelet aggregation caused by thrombin,blood platelets,suppressed
"CC(C)C[C@H](NC(=O)[C@H]1O[C@@H]1C(=O)O)C(=O)NCCCCN=C(N)N [Example E-64, E-64]",efficacy in an experimental model of cataract,[8],effective
same,hydroxyproline concentration,[2],lowered
same,serum calcium concentration,[2],lowered
"CC(=O)O[C@@H]1OCC[C@@H]1NC(=O)[C@H](CC(C)C)NC(=O)c1ccccc1F [Example 96, (2S,3S)-2-acetoxy-3-{(S)-2-(2-fluorobenzoylamino)-4-methylvalerylamino}tetrahydrofuran]",LD50 at 7 days,[6],< 2000 mg/kg
CCOC(=O)[C@@H]1O[C@H]1C(=O)NC(CC(C)C)C(=O)N1CCN(Cc2ccc(OC)c(OC)c2OC)CC1.CCOC(=O)[C@@H]1O[C@H]1C(=O)NC(CC(C)C)C(=O)N1CCN(Cc2ccc(OC)c(OC)c2OC)CC1.O=S(=O)(O)O (stereo partly shown) [NCO-700],efficacy in an animal model of myocardial infarct,[9],effective
"CC(C)C[C@H](NC(=O)c1cccc(F)c1)C(=O)N[C@H]1CCOC1O (stereo partly drawn) [Example 41, (3S)-3-{(S)-2-(3-fluorobenzoylamino)-4-methylvalerylamino}-2-tetrahydrofuranol]",IC50,[10],0.87 µM
same,IC50,m-Calpain; [11],1.15 µM
CC(=O)N[C@@H](CC(C)C)C(=O)N[C@@H](CC(C)C)C(=O)N[C@H](C=O)CCCNC(=N)N [leupeptin],protective effect on axon,axon,protective effect on axon was observed
"CC(C)C[C@H](NS(=O)(=O)c1cccc2ccccc12)C(=O)N[C@H]1CCOC1O (stereo partly drawn) [Example 75, (3S)-3-{(S)-4-methyl-2-(1-naphtylsulfonylamino)valerylamino}-2-tetrahydrofuranol]",IC50,[10],2.4 µM
same,IC50,m-Calpain; [12],0.38 µM
"CC(C)C[C@H](NC(=O)OCC1CCCCO1)C(=O)N[C@H]1CCOC1O (stereo partly drawn) [Example 24, (3S)-3-{(S)-4-methyl-2-(2-tetrahydropyranylmethoxycarbonylamino)valerylamino}-2-tetrahydrofuranol]",IC50,[10],2.9 µM
same,IC50,m-Calpain; [11],1.3 µM
"CC(=O)O[C@@H]1OCC[C@@H]1NC(=O)[C@H](CC(C)C)NS(=O)(=O)c1ccc(C)cc1 [Example 106, (2S,3S)-2-acetoxy-3-{(S)-4-methyl-2-(4-methylphenylsulfonylamino)valerylamino}tetrahydrofuran]",LD50 at 7 days,[6],< 2000 mg/kg
"CC(C)C[C@H](NC(=O)c1cccc2ccccc12)C(=O)N[C@H]1CCOC1O (stereo partly drawn) [Example 59, (3S)-3-{(S)-4-methyl-2-(1-naphthoylamino)valerylamino}-2-tetrahydrofuranol]",IC50,[10],0.8 µM
same,IC50,m-Calpain; [12],0.4 µM
"CC(C)C[C@H](NC(=O)OCc1ccc(Cl)cc1)C(=O)N[C@H]1CCOC1O (stereo partly drawn) [Example 17, (3S)-3-{(S)-2-(4-chlorobenzyloxycarbonylamino)-4-methylvalerylamino}-2-tetrahydrofuranol]",IC50,[10],0.64 µM
same,IC50,m-Calpain; [11],0.39 µM
